Laboratory results reported in patent US7691889B2, “Antimycobacterial compounds” (Lupin Limited, priority 2002, dated 2010).

Tested on: M. tuberculosis clinical isolates, resistant
Assay: microbe, parasite or virus in culture
Assay type: cell-based, Mycobacterium tuberculosis
Conditions: Table I; agar dilution

O=C(CCC(=O)c1ccccc1)NC[C@H]1CN(c2ccc(N3CCSCC3)c(F)c2)C(=O)O1 [Compound 8, (S)-N-[[3-(3-fluoro-4-thiomorpholinylphenyl)-2-oxo-5-oxazolidinyl]methyl]-4-oxo-4-phenylbutanamide]
MIC against Clinical isolates Resistant: 2 to 4 µg/mL
